Source: the NIST ThermoML archive (doi:10.1016/j.jct.2015.09.020)

Test: mn = molality of the nth substance listed, in mol/kg
Settings: 101.3 kPa, Liquid

NCCCC(=O)O [4-aminobutanoic acid] + O
Settings	speed of sound [m/s]
278.15 K, Frequency=2 MHz, Linear variable-path acoustic interferometer, m1 = 0.0495	1431.4
278.15 K, Frequency=2 MHz, Linear variable-path acoustic interferometer, m1 = 0.0732	1433.1
278.15 K, Frequency=2 MHz, Linear variable-path acoustic interferometer, m1 = 0.0959	1435.4
278.15 K, Frequency=2 MHz, Linear variable-path acoustic interferometer, m1 = 0.1193	1436.9
278.15 K, Frequency=2 MHz, Linear variable-path acoustic interferometer, m1 = 0.1412	1439
278.15 K, Frequency=2 MHz, Linear variable-path acoustic interferometer, m1 = 0.1828	1442.1
278.15 K, Frequency=2 MHz, Linear variable-path acoustic interferometer, m1 = 0.2085	1444.1
278.15 K, Frequency=2 MHz, Linear variable-path acoustic interferometer, m1 = 0.2388	1446.9
278.15 K, Frequency=2 MHz, Linear variable-path acoustic interferometer, m1 = 0.2699	1449.7
278.15 K, Frequency=2 MHz, Linear variable-path acoustic interferometer, m1 = 0.2922	1452.3
278.15 K, Frequency=2 MHz, Linear variable-path acoustic interferometer, m1 = 0.3224	1455.4
278.15 K, Frequency=2 MHz, Linear variable-path acoustic interferometer, m1 = 0.3534	1457.4
288.15 K, Frequency=3 MHz, Sing-around technique in a fixed-path interferometer, m1 = 0.0554	1470.3
288.15 K, Frequency=3 MHz, Sing-around technique in a fixed-path interferometer, m1 = 0.0877	1472.6
288.15 K, Frequency=3 MHz, Sing-around technique in a fixed-path interferometer, m1 = 0.0989	1473.5
288.15 K, Frequency=3 MHz, Sing-around technique in a fixed-path interferometer, m1 = 0.1173	1474.9
288.15 K, Frequency=3 MHz, Sing-around technique in a fixed-path interferometer, m1 = 0.1538	1479
288.15 K, Frequency=3 MHz, Sing-around technique in a fixed-path interferometer, m1 = 0.1809	1481.1
288.15 K, Frequency=3 MHz, Sing-around technique in a fixed-path interferometer, m1 = 0.211	1483
288.15 K, Frequency=3 MHz, Sing-around technique in a fixed-path interferometer, m1 = 0.2389	1484.6
288.15 K, Frequency=3 MHz, Sing-around technique in a fixed-path interferometer, m1 = 0.2692	1486.5
288.15 K, Frequency=3 MHz, Sing-around technique in a fixed-path interferometer, m1 = 0.2861	1489.5
288.15 K, Frequency=3 MHz, Sing-around technique in a fixed-path interferometer, m1 = 0.3181	1492.3
288.15 K, Frequency=3 MHz, Sing-around technique in a fixed-path interferometer, m1 = 0.3496	1494.9
298.15 K, Frequency=3 MHz, Sing-around technique in a fixed-path interferometer, m1 = 0.0494	1501.1
298.15 K, Frequency=3 MHz, Sing-around technique in a fixed-path interferometer, m1 = 0.0781	1503.4
298.15 K, Frequency=3 MHz, Sing-around technique in a fixed-path interferometer, m1 = 0.1017	1505.1
298.15 K, Frequency=3 MHz, Sing-around technique in a fixed-path interferometer, m1 = 0.1227	1506.8
298.15 K, Frequency=3 MHz, Sing-around technique in a fixed-path interferometer, m1 = 0.1469	1508.9
298.15 K, Frequency=3 MHz, Sing-around technique in a fixed-path interferometer, m1 = 0.1846	1511.8
298.15 K, Frequency=3 MHz, Sing-around technique in a fixed-path interferometer, m1 = 0.1944	1512.8
298.15 K, Frequency=3 MHz, Sing-around technique in a fixed-path interferometer, m1 = 0.245	1516.7
298.15 K, Frequency=3 MHz, Sing-around technique in a fixed-path interferometer, m1 = 0.2746	1519.2
298.15 K, Frequency=3 MHz, Sing-around technique in a fixed-path interferometer, m1 = 0.2975	1521.1
298.15 K, Frequency=3 MHz, Sing-around technique in a fixed-path interferometer, m1 = 0.3196	1522.6
298.15 K, Frequency=3 MHz, Sing-around technique in a fixed-path interferometer, m1 = 0.3477	1525

Settings	mass density [kg/m3]
278.15 K, Pycnometric method, m1 = 0.0495	1001.55
278.15 K, Pycnometric method, m1 = 0.0732	1002.25
278.15 K, Pycnometric method, m1 = 0.0959	1002.93
278.15 K, Pycnometric method, m1 = 0.1193	1003.65
278.15 K, Pycnometric method, m1 = 0.1412	1004.35
278.15 K, Pycnometric method, m1 = 0.1828	1005.72
278.15 K, Pycnometric method, m1 = 0.2085	1006.55
278.15 K, Pycnometric method, m1 = 0.2388	1007.5
278.15 K, Pycnometric method, m1 = 0.2699	1008.41
278.15 K, Pycnometric method, m1 = 0.2922	1009.03
278.15 K, Pycnometric method, m1 = 0.3224	1009.87
278.15 K, Pycnometric method, m1 = 0.3534	1010.83
288.15 K, Vibrating tube method, m1 = 0.0554	1000.83
288.15 K, Vibrating tube method, m1 = 0.0877	1001.66
288.15 K, Vibrating tube method, m1 = 0.0989	1002.15
288.15 K, Vibrating tube method, m1 = 0.1173	1002.71
288.15 K, Vibrating tube method, m1 = 0.1538	1003.54
288.15 K, Vibrating tube method, m1 = 0.1809	1004.28
288.15 K, Vibrating tube method, m1 = 0.211	1005.14
288.15 K, Vibrating tube method, m1 = 0.2389	1006.01
288.15 K, Vibrating tube method, m1 = 0.2692	1006.87
288.15 K, Vibrating tube method, m1 = 0.2861	1007.43
288.15 K, Vibrating tube method, m1 = 0.3181	1008.36
288.15 K, Vibrating tube method, m1 = 0.3496	1009.41
298.15 K, Vibrating tube method, m1 = 0.0494	998.48
298.15 K, Vibrating tube method, m1 = 0.0781	999.35
298.15 K, Vibrating tube method, m1 = 0.1017	1000.09
298.15 K, Vibrating tube method, m1 = 0.1227	1000.7
298.15 K, Vibrating tube method, m1 = 0.1469	1001.41
298.15 K, Vibrating tube method, m1 = 0.1846	1002.51
298.15 K, Vibrating tube method, m1 = 0.1944	1002.74
298.15 K, Vibrating tube method, m1 = 0.245	1004.3
298.15 K, Vibrating tube method, m1 = 0.2746	1004.99
298.15 K, Vibrating tube method, m1 = 0.2975	1005.61
298.15 K, Vibrating tube method, m1 = 0.3196	1006.38
298.15 K, Vibrating tube method, m1 = 0.3477	1007.09
